These results are taken from paper PMC2994021, “Isolation of cytoplasmic NADPH-dependent phenol hydroxylase and catechol-1,2-dioxygenase from Candida tropicalis yeast” (Interdisciplinary Toxicology, 2010).

As usually defined, the Km is the substrate concentration at which the rate is half of its maximum.

The assay relates to T1, NADPH-dependent phenol hydroxylase.
T1 construct: native enzyme purified from cytosol of phenol-grown yeast (DEAE-Sepharose, PEG 6000, Sepharose 4B), close to homogeneity
Nature of the assay: HPLC of phenol consumption, Michaelis-Menten kinetics. Format: biochemical, Candida tropicalis. The conditions noted are these: with NADPH; same Km from catechol formation; read-out: apparent Km.

Regarding `Oc1ccccc1` [phenol], the Km came to 450 µM.
